Measured values published in patent US12310946B2, “Pharmaceutical composition for oral administration of edaravone and method of administering same” (MITSUBISHI TANABE PHARMA CORPORATION, priority 2020, dated 2025).

Tests used:
[1] = Clinical study #3: PK of edaravone oral formulation (formula #3), fasted vs after high-fat, standard or light meal; analysis of variance; format: in vivo, human; settings: 105 mg oral; for Cmax Max: in ng/mL; for AUC(0-inf) / Cmax / Tmax / half-life: male, human, plasma, po, 105 mg
Procedure: Effects of meal consumption before administration of the edaravone oral formulation on the pharmacokinetics of edaravone were evaluated. Specifically, clinical studies #1, #2, and #3 described below were conducted on separate days in Japanese healthy adult male subjects. In each of clinical studies #1, #2, and #3, one dose each of edaravone oral formulations (edaravone suspensions) of formulas #1, #2, and #3 shown in Table 1 below were used respectively and administered orally once during the study period. For each clinical study, a reference study was conducted (reference example), in which the edaravone oral formulation was administered in fasted conditions as described below, and in each clinical study and the corresponding reference study, the edaravone oral formulation was each administered to the same subjects.
For the high-fat meal, a meal with total calories per meal of 800 to 1000 kilocalories and calorie intake from lipid of 50% was used. For the standard meal, a meal with total calories per meal of 400 to 500 kilocalories and calorie intake from lipid of 25% was used. For the light meal, a liquid-type nutritional supplement with total calories per meal of 250 kilocalories (enteral nutritional supplement: Ensure Liquid (trade name)) was used.
As examples, the edaravone oral formulation (formula #3) was administered orally to each subject of 8 hours after high-fat meal consumption, 4 hours after standard meal consumption, and 2 hours after light meal consumption. Blood samples were each collected before the administration, and 5 minutes, 15 minutes, 30 minutes, 45 minutes, 1 hour, 1.5 hours, 2 hours, 4 hours, 6 hours, 8 hours, 10 hours, 12 hours, 24 hours, 36 hours, and 48 hours after the administration, and the concentrations of unchanged edaravone in plasma were measured. In addition, as a comparative example, the edaravone oral formulation was administered orally to the same subjects 2 hours after standard meal consumption, blood samples were collected, and the concentrations of unchanged edaravone in plasma were measured in the same manner. On the other hand, as a reference example, the edaravone oral formulation was administered orally to the same subjects in fasted conditions, blood samples were collected, and the concentrations of unchanged edaravone in plasma were measured in the same manner. For the administration in fasted conditions, the edaravone oral formulation was administered orally after a lapse of 10 hours or longer from the previous meal consumption. None of the subjects consumed a next meal until the blood sample collection 4 hours after the administration was completed.
That is, from the results of the edaravone PK parameters, an analysis of variance was conducted on the AUC and Cmax in consideration of the meal condition. The spaghetti plots in FIG. 1 show results from individual subjects, in which results from the same subjects are connected with lines between results in the administration in fasted conditions and results in the postprandial administration.

[2] = Clinical study #9: PK of edaravone oral formulation (formula #3) in healthy adults (reference group), oral, fasted; format: in vivo; settings: both sexes, human, plasma, 105 mg oral, healthy (n = 42), mean, before weight correction
Procedure: On the other hand, a clinical study #9 shown below was conducted in healthy adult male and female subjects (42 in total) (the reference group). That is, the edaravone oral formulation of the formula #3 was administered orally to the reference group in fasted conditions after a lapse of 10 hours or longer. Then, blood samples were each collected before the administration, and 5 minutes, 15 minutes, 30 minutes, 45 minutes, 1 hour, 1.5 hours, 2 hours, 4 hours, 6 hours, 8 hours, 10 hours, 12 hours, 24 hours, 36 hours, and 48 hours after the administration, and the concentrations of unchanged edaravone in plasma were measured.
The resulting PK parameters were corrected for body weight of each subject adjusted to 70 kg by a proportional calculation for each of the patient group and the reference group. In addition, the results of the PK parameters after correction of the patient group are shown as box-whisker plots of #9 (the reference group), and individual plots of #5 (the patient group) and #9 (the reference group) in FIG. 3. In FIG. 3, X represents a mean value. […] Thus, the difference in the Cmax and the difference in the AUC before weight correction between the patient group and the reference group seen in Table 9 below are considered due to the difference in body weight between the patient group and the reference group, and the difference in the Cmax and the difference in the AUC after weight correction between the patient group and the reference group observed in FIG. 3 are each considered to be within the range of error.

[3] = 2 h after standard meal vs fasted
[4] = 4 h after standard meal vs fasted
[5] = 8 h after high-fat meal vs fasted
[6] = formula #3, 2 h after light meal, mean (n = 16)
[7] = formula #3, 2 h after standard meal, mean (n = 16)
[8] = formula #3, 4 h after standard meal, mean (n = 16)
[9] = formula #3, 8 h after high-fat meal, mean (n = 16)
[10] = formula #3, fasted, mean (n = 16)

## CC1=NN(c2ccccc2)C(=O)C1 [Edaravone, 3-methyl-1-phenyl-2-pyrazolin-5-one]
[1]; 2 h after light meal vs fasted
  change in the AUC in comparison with fasted: no decrease and →
  change in the Cmax in comparison with fasted: no decrease and →
[1]; [3]
  decrease in the AUC in comparison with fasted: (21% ↓)
  decrease in the Cmax in comparison with fasted: (45% ↓)
[1]; 2 hours after light meal
  Cmax Min: 0.388 µg/mL
  Cmax Max: 3237
[1]; [4]
  change in the AUC in comparison with fasted: no decrease and →
  change in the Cmax in comparison with fasted: no decrease and →
[1]; 4 hours after standard meal
  Cmax Min: 0.642 µg/mL
  Cmax Max: 4286
[1]; [5]
  change in the AUC in comparison with fasted: no decrease and →
  change in the Cmax in comparison with fasted: no decrease and →
[1]; 8 hours after high-fat meal
  Cmax Min: 0.595 µg/mL
  Cmax Max: 5270
[1]; fasted
  Cmax Min: 0.797 µg/mL
  Cmax Max: 4816
[1]; 2 hours after light meal, analysis of variance, read-out: AUC0-∞ Least-square mean
  AUC(0-inf): 1.89 µg·h/mL
[1]; 2 hours after light meal, analysis of variance, read-out: Cmax Least-square mean
  Cmax: 1.66 µg/mL
[1]; 2 hours after light meal, read-out: Cmax Median
  Cmax: 1.96 µg/mL
[1]; 4 hours after standard meal, analysis of variance, read-out: AUC0-∞ Least-square mean
  AUC(0-inf): 1.99 µg·h/mL
[1]; 4 hours after standard meal, analysis of variance, read-out: Cmax Least-square mean
  Cmax: 1.76 µg/mL
[1]; 4 hours after standard meal, read-out: Cmax Median
  Cmax: 1.74 µg/mL
[1]; 8 hours after high-fat meal, analysis of variance, read-out: AUC0-∞ Least-square mean
  AUC(0-inf): 2.12 µg·h/mL
[1]; 8 hours after high-fat meal, analysis of variance, read-out: Cmax Least-square mean
  Cmax: 2.19 µg/mL
[1]; 8 hours after high-fat meal, read-out: Cmax Median
  Cmax: 2.24 µg/mL
[1]; fasted and each postprandial administration alike, read-out: Cmax, median of values of each subject
  Cmax: ~2 µg/mL
[1]; fasted and each postprandial administration alike, read-out: Cmax, range of values of each subject
  Cmax: 1 to 5 µg/mL
[1]; fasted, analysis of variance, read-out: AUC0-∞ Least-square mean
  AUC(0-inf): 2.07 µg·h/mL
[1]; fasted, analysis of variance, read-out: Cmax Least-square mean
  Cmax: 2.02 µg/mL
[1]; fasted, read-out: Cmax Median
  Cmax: 1.99 µg/mL
[1]; [6]
  Tmax: 24.6 min
  half-life: 439 min
[1]; formula #3, 2 h after light meal, mean (n = 16), read-out: AUC0-∞
  AUC(0-inf): 1.96 µg·h/mL
[1]; formula #3, 2 h after light meal, mean (n = 16), read-out: Cmax
  Cmax: 1.9 µg/mL
[1]; [7]
  Tmax: 37.8 min
  half-life: 675 min
[1]; formula #3, 2 h after standard meal, mean (n = 16), read-out: AUC0-∞
  AUC(0-inf): 1.72 µg·h/mL
[1]; formula #3, 2 h after standard meal, mean (n = 16), read-out: Cmax
  Cmax: 1.28 µg/mL
[1]; [8]
  Tmax: 26.4 min
  half-life: 543 min
[1]; formula #3, 4 h after standard meal, mean (n = 16), read-out: AUC0-∞
  AUC(0-inf): 2.07 µg·h/mL
[1]; formula #3, 4 h after standard meal, mean (n = 16), read-out: Cmax
  Cmax: 2.02 µg/mL
[1]; [9]
  Tmax: 21.6 min
  half-life: 443 min
[1]; formula #3, 8 h after high-fat meal, mean (n = 16), read-out: AUC0-∞
  AUC(0-inf): 2.21 µg·h/mL
[1]; formula #3, 8 h after high-fat meal, mean (n = 16), read-out: Cmax
  Cmax: 2.52 µg/mL
[1]; [10]
  Tmax: 22.8 min
  half-life: 490 min
[1]; formula #3, fasted, mean (n = 16), read-out: AUC0-∞
  AUC(0-inf): 2.17 µg·h/mL
[1]; formula #3, fasted, mean (n = 16), read-out: Cmax
  Cmax: 2.32 µg/mL
[2]
  AUC(0-inf): 1.76 µg·h/mL
  Cmax: 1.66 µg/mL
  Tmax: 26.4 min
